From the supplement of paper PMC11061612

Assays:
[1] = tested on: HOS (Osteosarcoma); test: Bliss excess, mean over the matrix (fraction); higher = more synergy
Outline: (§1)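 After 24 hours at 37°C and 5% CO2 in 1536-well plates, cells in DMEM/F12 or RPMI plus 10% FBS received two-drug dose matrices for 72 hours. Viability came from CellTiter-Glo 2.0 luminescence and was scaled as inhibition, anchored at 0 by vehicle wells and at 1 by blank wells. Combination Emax is taken as the second-highest inhibition in the matrix, and Bliss excess as the observed combination effect less EA + EB − EA·EB, with EA and EB the single-agent effects.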

[2] = tested on: NOS-1 (Osteosarcoma); test: as above
Outline: as §1

[3] = tested on: RO82-W-1 (Thyroid Gland Carcinoma); test: as above
Outline: as §1

[4] = tested on: CCRF-CEM (T-Lymphoblastic Leukemia); test: as above
Outline: as §1

[5] = tested on: NCI-H2085 (Non-Small Cell Lung Carcinoma); test: as above
Outline: as §1

[6] = tested on: RC-K8 (B-Cell Non-Hodgkin's Lymphoma); test: as above
Outline: as §1

[7] = tested on: HOS (Osteosarcoma); test: combination Emax (second highest fraction inhibited in the dose matrix, 72 h); higher = more inhibition; extreme values may be limits of the assay
Outline: as §1

[8] = tested on: HuP-T4 (Pancreatic Carcinoma); test: as above
Outline: as §1

[9] = tested on: 42-MG-BA (Glioblastoma); test: as above
Outline: as §1

[10] = tested on: LU-135 (Small Cell Lung Carcinoma); test: as above
Outline: as §1

[11] = tested on: AGS (Gastric Carcinoma); test: as above
Outline: as §1

[12] = tested on: LB831-BLC (Bladder Carcinoma); test: as above
Outline: as §1

[13] = tested on: OVCA420 (Ovarian Carcinoma); test: as above
Outline: as §1

[14] = tested on: HO-1-N-1 (Oral Cavity Carcinoma); test: as above
Outline: as §1

[15] = tested on: NCI-H2085 (Non-Small Cell Lung Carcinoma); test: as above
Outline: as §1

[16] = tested on: ME-1 (Acute Myeloid Leukemia); test: as above
Outline: as §1

[17] = tested on: KYSE-520 (Esophageal Squamous Cell Carcinoma); test: as above
Outline: as §1

[18] = tested on: LNCaP-Clone-FGC (Prostate Carcinoma); test: as above
Outline: as §1

[19] = tested on: KELLY (Neuroblastoma); test: as above
Outline: as §1

[20] = tested on: HT-1376 (Bladder Carcinoma); test: as above
Outline: as §1
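Throughout, for Bliss excess, mean over the matrix: after 72 h of two-drug dosing.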

Compound	Bliss excess [1]	Bliss excess [2]	Bliss excess [3]	Bliss excess [4]	Bliss excess [5]	Bliss excess [6]	combination Emax [7]	combination Emax [8]	combination Emax [9]	combination Emax [10]	combination Emax [11]	combination Emax [12]	combination Emax [13]	combination Emax [14]	combination Emax [15]	combination Emax [16]	combination Emax [17]	combination Emax [18]	combination Emax [19]	combination Emax [20]
CC1(C)CCC(CN2CCN(c3ccc(C(=O)NS(=O)(=O)c4ccc(NCC5CCOCC5)c([N+](=O)[O-])c4)c(Oc4cnc5[nH]ccc5c4)c3)CC2)=C(c2ccc(Cl)cc2)C1 [Venetoclax] + C[C@@H](Nc1cc(F)cc(F)c1)c1cc(C(=O)N(C)C)cc2c(=O)cc(N3CCOCC3)oc12 [AZD8186] (first compound max 1 µM, 7x7, partner max 3 µM)	-0.0262	0.018	-0.0455	0.012	0.0025	0.018	0.0842	0.195	0.391	0.484	0.106	0.182	0.165	0.152	0.354	1	0.247	0.809	1	0.0567
COc1nnc2ccc(N3CCC(c4ccc(OCCN5CCN(C)C(=O)[C@H]5C)cc4)CC3)nn12 [AZD5153] + C=CCn1c(=O)c2cnc(Nc3ccc(N4CCN(C)CC4)cc3)nc2n1-c1cccc(C(C)(C)O)n1 [AZD1775] (first compound max 1 µM, partner max 1 µM)	-0.0504	-0.0371	0.038	-0.019	-0.0223	-0.101	0.501	0.549	0.688	1	0.923	0.668	0.789	0.813	0.505	0.572	0.656	0.758	1	0.517
